Test [1] addresses T1, 17β-HSD1 (Homo sapiens, UniProt P14061).
T1 construct: was measured in intact cell monolayers of T47D and MDA-MB-231 breast cancer cells respectively; endogenous in cells; host or cells: T-47D human breast cancer cells
T1 sequence (P14061 1-328): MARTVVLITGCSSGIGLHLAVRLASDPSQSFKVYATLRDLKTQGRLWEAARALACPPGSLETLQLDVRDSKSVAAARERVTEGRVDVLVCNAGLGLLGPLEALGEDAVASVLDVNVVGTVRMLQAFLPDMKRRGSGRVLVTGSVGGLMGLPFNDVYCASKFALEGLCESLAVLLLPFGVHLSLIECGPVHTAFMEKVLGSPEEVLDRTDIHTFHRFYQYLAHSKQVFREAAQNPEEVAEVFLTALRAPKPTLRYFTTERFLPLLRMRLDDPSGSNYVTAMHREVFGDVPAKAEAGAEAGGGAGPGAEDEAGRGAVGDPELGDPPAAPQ
As to the kind of experiment: 17β-HSD Type I activity in T-47D cells (E1→E2). Particulars: for inhibition at 10 µM: T47D. Format: cell-based.

Test [2] has as its target T2, 17β-HSD2 (Homo sapiens, UniProt P37059).
T2 construct: was measured in intact cell monolayers of T47D and MDA-MB-231 breast cancer cells respectively; endogenous in cells; host or cells: MDA-MB-231 human breast cancer cells
T2 sequence (P37059 1-387): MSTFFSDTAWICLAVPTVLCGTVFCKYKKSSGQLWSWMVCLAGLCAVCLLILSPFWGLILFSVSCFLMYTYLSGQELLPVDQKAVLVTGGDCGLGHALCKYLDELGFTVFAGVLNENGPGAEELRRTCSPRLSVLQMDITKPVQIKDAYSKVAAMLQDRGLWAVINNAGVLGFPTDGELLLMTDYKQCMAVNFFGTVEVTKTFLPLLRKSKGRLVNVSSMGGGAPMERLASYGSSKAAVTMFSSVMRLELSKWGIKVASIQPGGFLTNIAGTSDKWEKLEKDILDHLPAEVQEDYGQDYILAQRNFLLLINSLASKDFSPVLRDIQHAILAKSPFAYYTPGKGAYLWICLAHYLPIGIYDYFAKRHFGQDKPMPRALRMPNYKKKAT
Kind of test: 17β-HSD Type II activity in MDA-MB-231 cells (E2→E1). Format: cell-based.

[3] abbreviates: 10 μM, T-47D cells, E1→E2, read-out: % inhibition of 17β-HSD1 @ 10 μM.
Setting [4] is: 10 μM, MDA-MB-231 cells, E2→E1, read-out: % inhibition of 17β-HSD2 @ 10 μM.
[5] abbreviates: T-47D cells, E1→E2, read-out: IC50 (17β-HSD1).
The mark [6] stands for this setting: read-out: % inhibition of 17β-HSD1 @ 10 μM, 10 μM, T-47D cells, E1→E2.
[7] abbreviates: MDA-MB-231, read-out: % inhibition of 17β-HSD2 @ 10 μM.

This is an account of results in patent US8003783B2, “17B-hydroxysteroid dehydrogenase inhibitors” (Sterix Limited, priority 2004, dated 2011).

Molecules are shown by their SMILES. Values joined by “and” are separate entries in the source; they are usually repeats but may differ in a detail not shown here. Identical values can stand only once. Like-named read-outs stand apart in the source and are kept apart here.

On to `C[C@]12CCC3c4ccc(O)cc4CCC3C1CC(CO)[C@@H]2O` (stereo partly drawn) [compound 612], for which the inhibition at 10 µM came out at 86% in test [1] (setting [3]) and 17% in test [2] (setting [4]).
Turning to `C[C@]12CCC3c4ccc(O)cc4/C(=N\O)CC3C1CC/C2=N\O` (stereo partly drawn) [compound 454], the IC50 in test [1] (setting [5]) was 1900 nM. In test [2] (setting [4]), the inhibition at 10 µM turned out to be 27%.
`COCCn1ncc2c1[C@@]1(C)CCC3c4ccc(O)cc4CCC3C1C2` (stereo partly drawn) [compound 809]: the inhibition at 10 µM was 83% in test [1] (setting [3]) and 55% in test [2] (setting [4]).
In the case of `C[C@]12CCC3c4ccc(O)cc4CCC3C1C/C(=C/O)C2=O` (stereo partly drawn) [compound 486], the figures for the inhibition at 10 µM in test [1] (setting [3]) and in test [2] (setting [4]) were 97% and 15%, respectively. For the same compound, in test [1] (setting [5]), the IC50 was 110 nM.
As to `CC(NC(=O)C1CC2C3CCc4cc(O)ccc4C3CC[C@]2(C)[C@H]1O)c1ccccc1` (stereo partly drawn) [compound 844], the half-maximal inhibitory concentration (IC50) in test [1] was determined as 810 nM. Further, the inhibition at 10 µM worked out at 90% in test [1] (setting [3]) and 12% in test [2] (setting [4]).
In the case of `CCOC(=O)CC1CC2C3CCc4cc(O)ccc4C3CC[C@]2(C)[C@H]1O` (stereo partly drawn) [compound 574], the figures for the inhibition at 10 µM in test [1] (setting [3]) and in test [2] (setting [4]) were 67% and 18%, respectively.
On the same counts, the results for `C[C@]12CCC3c4ccc(O)cc4CCC3C1C/C(=C\c1cccnc1)[C@@H]2O` (stereo partly drawn) [compound 323] are 52% and 43%.
On the same counts, the results for `CC(C)NC(=O)CC1CC2C3CCc4cc(O)ccc4C3CC[C@]2(C)[C@H]1O` (stereo partly drawn) [compound 773] are 67% and 11%.
Taken in the same sequence, the figures for `C[C@]12CCC3c4ccc(O)cc4CCC3C1C/C(=C\c1cccs1)[C@@H]2O` (stereo partly drawn) [compound 507] were 41% and 25%.
`C[C@]12CCC3c4ccc(O)cc4CCC3C1Cc1c2n[nH]c1C(=O)NCCc1cccnc1` (stereo partly drawn) [compound 916]: the inhibition at 10 µM worked out at 98.5% in test [1] (setting [6]) and 3% in test [2] (setting [7]). The IC50 in test [1] (setting [5]) came to 300 nM.
For the compound `CCN(CC)C(=O)CC1CC2C3CCc4cc(O)ccc4C3CC[C@]2(C)[C@H]1O` (stereo partly drawn) [compound 772], the inhibition at 10 µM in test [1] (setting [3]) was determined as 79%; in test [2] (setting [4]), 14%.
On to `Cn1cc2c(n1)[C@@]1(C)CCC3c4ccc(O)cc4CCC3C1C2` (stereo partly drawn) [compound 785], for which the inhibition at 10 µM in test [1] (setting [6]) was 94%; in test [2] (setting [7]), 24%. Moreover, the IC50 in test [1] (setting [5]) was 2750 nM.
As to `C[C@]12CCC3c4ccc(O)cc4CCC3C1C/C(=C\c1ccccn1)[C@@H]2O` (stereo partly drawn) [compound 322], the inhibition at 10 µM in test [1] (setting [3]) is 55%; in test [2] (setting [4]), 17%.
`C[C@]12CCC3c4ccc(O)cc4C(=O)CC3C1C/C(=C/O)C2=O` (stereo partly drawn) [compound 784]: the inhibition at 10 µM in test [1] (setting [3]) is 97%; in test [2] (setting [4]), -7%. The IC50 in test [1] (setting [5]) was found to be 700 nM.
On to `CNC(=O)CC1CC2C3CCc4cc(O)ccc4C3CC[C@]2(C)[C@H]1O` (stereo partly drawn) [compound 775], for which the inhibition at 10 µM in test [1] (setting [3]) is 63%; in test [2] (setting [4]) it was 11%.
For `C[C@]12CCC3c4ccc(O)cc4CCC3C1CC(CC(=O)NCC1CCCO1)C2=O` (stereo partly drawn) [compound 671], the inhibition at 10 µM in test [1] (setting [3]) stood at 91%; in test [2] (setting [4]) it was 21%. In test [1] (setting [5]), the IC50 stood at 380 nM.
As to `COC(=O)Cn1ncc2c1[C@@]1(C)CCC3c4ccc(O)cc4CCC3C1C2` (stereo partly drawn) [compound 807], the figures for the inhibition at 10 µM in test [1] (setting [3]) and in test [2] (setting [4]) were 79% and 30%, respectively.
`CC(C)(C)/C=C1\CC2C3CCc4cc(O)ccc4C3CC[C@]2(C)[C@H]1O` (stereo partly drawn) [compound 948]: the inhibition at 10 µM in test [1] (setting [3]) was 84%; in test [2] (setting [4]) it was 27%.
Consider `CCN(C)C(=O)CC1CC2C3CCc4cc(O)ccc4C3CC[C@]2(C)[C@H]1O` (stereo partly drawn) [compound 771], for which the inhibition at 10 µM in test [1] (setting [3]) is 78%; in test [2] (setting [4]), 16%.
With `COC(=O)Cn1cc2c(n1)[C@@]1(C)CCC3c4ccc(O)cc4CCC3C1C2` (stereo partly drawn) [compound 806], the inhibition at 10 µM came to 95% in test [1] (setting [3]) and 19% in test [2] (setting [4]). Besides, the IC50 in test [1] (setting [5]) was 920 nM.
`CCNC(=O)CC1CC2C3CCc4cc(O)ccc4C3CC[C@]2(C)C1=O` (stereo partly drawn) [compound 744]: the values for the inhibition at 10 µM in test [1] (setting [3]) and in test [2] (setting [4]) were 84% and 2%, respectively.
On the same counts, the results for `C[C@]12CCC3c4ccc(O)cc4CCC3C1CC(Cc1cccnc1)[C@@H]2O` (stereo in doubt) [compound 542, 13-Methyl-16-pyridin-3-ylmethyl-7,8,9,11,12,13,14,15,16,17-decahydro-6H-cyclopenta[a]phenanthrene-3,17-diol] are 87% and 11%.
On the same counts, the results for `CCNC(=O)CC1CC2C3CCc4cc(O)ccc4C3CC[C@]2(C)[C@H]1O` (stereo partly drawn) [compound 774] are 76% and 13%.
On to `COC(=O)C1CC2C3CCc4cc(O)ccc4C3CC[C@]2(C)[C@H]1O` (stereo partly drawn) [compound 572], for which the values for the inhibition at 10 µM in test [1] (setting [3]) and in test [2] (setting [4]) were 63% and 2%, respectively.
Consider `C[C@]12CCC3c4ccc(O)cc4CCC3C1CC(C#N)[C@@H]2O` (stereo partly drawn) [compound 561], for which the inhibition at 10 µM came to 56% in test [1] (setting [3]) and 4% in test [2] (setting [4]).
As to `C[C@]12CCC3c4ccc(O)cc4C(=O)CC3C1CCC2=O` (stereo partly drawn) [compound 416], the inhibition at 10 µM in test [1] (setting [3]) is 98%; in test [2] (setting [4]) it was 8%. Further, in test [1] (setting [5]), the IC50 amounted to 340 nM.
Regarding `C[C@]12CCC3c4ccc(O)cc4CCC3C1Cc1c2n[nH]c1C(=O)O` (stereo partly drawn) [compound 783], the inhibition at 10 µM in test [1] (setting [3]) was 32%; in test [2] (setting [4]) it was -6%.
On the same counts, the results for `C[C@]12CCC3c4ccc(OS(N)(=O)=O)cc4CCC3C1C/C(=N/O)C2=O` (stereo partly drawn) [compound 337] are 47% and 8%.
`C[C@]12CCC3c4ccc(O)cc4CCC3C1C/C(=C\c1ccncc1)[C@@H]2O` (stereo partly drawn) [compound 324] yielded an IC50 in test [1] of 4100 nM. For the same compound, the “% inhibition of 17β-HSD1 @ 10 μM” value in test [1] (10 μM, T-47D cells, E1→E2) amounted to 72%. Further, the inhibition at 10 µM in test [1] (setting [3]) worked out at 81%; in test [2] (setting [4]), 3%.
Turning to `COc1cc(/C=C2\CC3C4CCc5cc(O)ccc5C4CC[C@]3(C)[C@H]2O)cc(OC)c1OC` (stereo partly drawn) [compound 329], the “% inhibition of 17β-HSD1 @ 10 μM” value in test [1] (10 μM, T-47D cells, E1→E2) was 63% and 33%. Further, in test [2] (setting [4]), the inhibition at 10 µM amounted to 3%.
In turn, `C[C@]12CCC3c4ccc(O)cc4CCC3C1CC(C(=O)NCc1cccnc1)[C@@H]2O` (stereo partly drawn) [compound 798] registered an IC50 in test [1] of 510 nM. For the same compound, the results for the inhibition at 10 µM in test [1] (setting [3]) and in test [2] (setting [4]) were 91% and -12%, respectively.
Regarding `C[C@]12CCC3c4ccc(OS(N)(=O)=O)cc4CCC3C1C/C(=C\c1ccncc1)C2=O` (stereo partly drawn) [compound 452], the values for the inhibition at 10 µM in test [1] (setting [3]) and in test [2] (setting [4]) were 28% and 11%, respectively.
Taken in the same sequence, the figures for `CN(C)c1ccc(/C=C2\CC3C4CCc5cc(O)ccc5C4CC[C@]3(C)C2=O)cc1` (stereo partly drawn) [compound 477, 16-(4-Dimethylamino-benzylidene)-3-hydroxy-13-methyl-6,7,8,9,11,12,13,14,15,16-decahydro-cyclopenta[a]phenanthron-17-one] were 72% and 13%.
Taken in the same sequence, the figures for `C[C@]12CCC3c4ccc(O)cc4CCC3C1CC(CC(=O)O)[C@@H]2O` (stereo partly drawn) [compound 603] were 58% and 0%.
In test [1], `CCc1cc2c(cc1O)CCC1C2CC[C@]2(C)C(=O)C(CC(=O)NCc3cccnc3)CC12` (stereo partly drawn) [compound 1040] showed an IC50 of 27 nM. For the same compound, the inhibition at 10 µM in test [2] (setting [4]) is -5%.
